Test [1] addresses T1, 5-hydroxytryptamine receptor 1A (Homo sapiens, UniProt P08908).
T1 sequence (P08908 whole entry): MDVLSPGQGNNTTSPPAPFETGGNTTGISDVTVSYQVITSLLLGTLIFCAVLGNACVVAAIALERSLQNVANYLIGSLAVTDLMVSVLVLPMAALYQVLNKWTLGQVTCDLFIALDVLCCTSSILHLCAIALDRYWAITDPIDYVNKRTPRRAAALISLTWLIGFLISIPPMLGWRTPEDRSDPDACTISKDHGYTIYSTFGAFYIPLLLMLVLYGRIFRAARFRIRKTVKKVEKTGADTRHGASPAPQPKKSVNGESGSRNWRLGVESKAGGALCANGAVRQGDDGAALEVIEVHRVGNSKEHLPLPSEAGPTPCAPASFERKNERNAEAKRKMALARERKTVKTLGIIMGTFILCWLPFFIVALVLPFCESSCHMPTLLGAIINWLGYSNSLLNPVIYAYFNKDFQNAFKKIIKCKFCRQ
Put plainly: Displacement of [3H]-8-OH-DPAT from human 5-HT1A receptor expressed in HEK293 cell membranes after 1 hr by microbeta scintillation counting analysis. For orientation: Loss of bound radioactivity is the signal in a displacement assay; it reports binding, not function.

The species entered for test [2] is Homo sapiens. Put plainly: Selectivity index, ratio of Ki for human 5-HT1A receptor expressed in HEK293 cell membranes to Ki for human 5-HT7b receptor expressed in HEK293 cell membranes. Type of test: cell-based.
The species named for test [3] is Homo sapiens. Put plainly: Selectivity index, ratio of Ki for human 5-HT6 receptor expressed in HEK293 cell membranes to Ki for human 5-HT7b receptor expressed in HEK293 cell membranes. In kind it is cell-based.
Test [4] concerns the target 5-hydroxytryptamine receptor 7 (Homo sapiens, UniProt P34969). Put plainly: Displacement of [3H]-5-CT from human 5-HT7b receptor expressed in HEK293 cell membranes after 1 hr at 37 degC by microbeta scintillation counting analysis.
Test [5] addresses 5-hydroxytryptamine receptor 6 (Homo sapiens, UniProt P50406). Put plainly: Displacement of [3H]-LSD from human 5-HT6 receptor expressed in HEK293 cell membranes after 1 hr at 37 degC by microbeta scintillation counting analysis.
The species entered for test [6] is Homo sapiens. Put plainly: Selectivity index, ratio of Ki for human 5-HT2A receptor expressed in CHO-K1 cell membranes to Ki for human 5-HT7b receptor expressed in HEK293 cell membranes. In kind it is cell-based.
For test [7], the target named is 5-hydroxytryptamine receptor 2A (Homo sapiens, UniProt P28223). Put plainly: Displacement of [3H]-Ketanserin from human 5-HT2A receptor expressed in CHO-K1 cell membranes after 1.5 hrs by microbeta scintillation counting analysis.

pKi: −log10 of the molar value.

Chain of 5-hydroxytryptamine receptor 7 (P34969 whole entry): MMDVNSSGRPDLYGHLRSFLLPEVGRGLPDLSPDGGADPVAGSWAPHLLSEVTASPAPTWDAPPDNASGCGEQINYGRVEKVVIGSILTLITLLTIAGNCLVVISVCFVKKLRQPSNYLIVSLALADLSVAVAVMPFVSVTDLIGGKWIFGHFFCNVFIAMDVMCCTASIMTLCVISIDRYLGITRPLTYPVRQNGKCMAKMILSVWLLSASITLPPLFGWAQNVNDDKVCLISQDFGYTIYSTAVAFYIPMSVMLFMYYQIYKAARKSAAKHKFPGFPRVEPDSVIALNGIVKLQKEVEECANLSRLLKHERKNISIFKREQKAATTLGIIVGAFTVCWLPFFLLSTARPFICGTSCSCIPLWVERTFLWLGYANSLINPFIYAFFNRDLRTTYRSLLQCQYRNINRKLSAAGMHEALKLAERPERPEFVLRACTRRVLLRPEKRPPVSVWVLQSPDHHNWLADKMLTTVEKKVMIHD
Chain of 5-hydroxytryptamine receptor 6 (P50406 whole entry): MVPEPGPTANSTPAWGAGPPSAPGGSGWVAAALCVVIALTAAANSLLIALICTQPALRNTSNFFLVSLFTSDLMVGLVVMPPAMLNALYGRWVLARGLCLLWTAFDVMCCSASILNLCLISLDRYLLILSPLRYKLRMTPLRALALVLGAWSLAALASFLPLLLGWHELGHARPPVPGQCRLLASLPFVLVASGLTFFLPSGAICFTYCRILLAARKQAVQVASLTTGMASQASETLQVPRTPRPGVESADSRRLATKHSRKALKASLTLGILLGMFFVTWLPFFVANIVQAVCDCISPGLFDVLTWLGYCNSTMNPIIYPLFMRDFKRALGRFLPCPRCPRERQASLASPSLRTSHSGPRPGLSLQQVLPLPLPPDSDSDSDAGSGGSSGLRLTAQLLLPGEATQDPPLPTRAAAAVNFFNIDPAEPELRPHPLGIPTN
Chain of 5-hydroxytryptamine receptor 2A (P28223 whole entry): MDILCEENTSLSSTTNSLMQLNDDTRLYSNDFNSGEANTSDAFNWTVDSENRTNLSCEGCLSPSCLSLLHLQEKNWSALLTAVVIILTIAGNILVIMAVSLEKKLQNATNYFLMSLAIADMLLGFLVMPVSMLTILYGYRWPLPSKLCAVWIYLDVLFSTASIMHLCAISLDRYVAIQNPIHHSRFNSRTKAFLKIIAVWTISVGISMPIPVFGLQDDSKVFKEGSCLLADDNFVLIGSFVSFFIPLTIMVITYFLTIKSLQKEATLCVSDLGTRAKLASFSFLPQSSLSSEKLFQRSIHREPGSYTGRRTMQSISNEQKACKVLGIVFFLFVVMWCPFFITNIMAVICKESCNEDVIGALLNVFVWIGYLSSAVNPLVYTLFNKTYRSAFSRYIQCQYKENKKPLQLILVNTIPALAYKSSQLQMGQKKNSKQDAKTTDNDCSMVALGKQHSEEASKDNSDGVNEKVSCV

One may read the pKi as the negative decadic logarithm of the Ki, by convention in mol/L. As to `O=C1Nc2ccccc2C12CCN(CCN1CC=C(c3ccc(F)cc3)CC1)C2` (centres undefined), the negative-log Ki (pKi) in test [1] was 5.40; in test [4], 7.37; in test [5], 5.20; in test [7] it was 7.12. For the same molecule, the Ratio Ki was 91.8 in the test filed under Homo sapiens [2], 146 in the test listed under Homo sapiens [3] and 1.7 in the test filed under Homo sapiens [6].
In the case of `O=C1Nc2ccccc2C12CCN(CCN1CCC(Oc3ccc(Cl)cc3)CC1)C2` (centres undefined), the pKi was 4.86 in test [1], 6.92 in test [4], 5.77 in test [5] and 6.46 in test [7]. The Ratio Ki in the test listed under Homo sapiens [2] came to 114; in the test listed under Homo sapiens [3] it was 14; in the test filed under Homo sapiens [6], 2.8.
Turning to `O=C1Nc2ccccc2C12CCN(CCN1CCN(c3ccc(Cl)c(Cl)c3)CC1)C2` (centres undefined), the pKi in test [1] is 5.39; in test [4] it was 7.42; in test [5] it was 5.95; in test [7], 6.57. For the same molecule, the Ratio Ki is 107 in the test filed under Homo sapiens [2], 29.8 in the test filed under Homo sapiens [3] and 7.1 in the test filed under Homo sapiens [6].
Turning to `O=C1Nc2ccccc2C12CCN(CCN1CCC(c3ccc(Cl)cc3)CC1)C2` (centres undefined), the pKi in test [1] is 4.83; in test [4] it was 6.55; in test [5], 5.34; in test [7], 6.39. Moreover, the results for the Ratio Ki in the test listed under Homo sapiens [2], in the test filed under Homo sapiens [3] and in the test filed under Homo sapiens [6] were 52.5, 16.1 and 1.4, respectively.
For `O=C(c1ccc(Cl)cc1)N1CCN(CCN2CCC3(C2)C(=O)Nc2ccccc23)CC1` (centres undefined), the pKi was 4.32 in test [1], 6.28 in test [4], 5.11 in test [5] and 4.76 in test [7]. In addition, the results for the Ratio Ki in the test listed under Homo sapiens [2], in the test listed under Homo sapiens [3] and in the test filed under Homo sapiens [6] were 91.2, 14.6 and 32.8, respectively.
`O=C1Nc2ccccc2C12CCN(CCN1CCC(c3ccc(F)cc3)CC1)C2` (centres undefined): the pKi in test [1] is 4.28; in test [4], 6.56; in test [5] it was 5.28; in test [7] it was 6.59. In addition, the Ratio Ki in the test filed under Homo sapiens [2] turned out to be 189; in the test filed under Homo sapiens [3], 19.2; in the test filed under Homo sapiens [6] it was 0.9.
For `O=C1Nc2ccccc2C12CCN(CCN1CCN(c3cccc(Cl)c3)CC1)C2` (centres undefined), the pKi is 5.57 in test [1], 7.26 in test [4], 5.70 in test [5] and 6.45 in test [7]. In addition, the Ratio Ki was determined as 48.9 in the test listed under Homo sapiens [2], 36.5 in the test filed under Homo sapiens [3] and 6.4 in the test listed under Homo sapiens [6].
Regarding `O=C1Nc2ccccc2C12CCN(CCN1CCN(c3ccccc3)CC1)C2` (centres undefined), the pKi was 5.22 in test [1], 7.00 in test [4], 5.18 in test [5] and 6.30 in test [7]. The Ratio Ki was 60.1 in the test listed under Homo sapiens [2], 65.6 in the test listed under Homo sapiens [3] and 5 in the test filed under Homo sapiens [6].
For `O=C1Nc2ccccc2C12CCN(CCN1CCN(c3ccc(Cl)cc3)CC1)C2` (centres undefined), the pKi in test [1] is 5.43; in test [4], 7.54; in test [5] it was 5.32; in test [7] it was 7.17. The Ratio Ki is 130 in the test listed under Homo sapiens [2], 163 in the test filed under Homo sapiens [3] and 2.3 in the test listed under Homo sapiens [6].
Take `O=C1Nc2ccccc2C12CCN(CCCN1CCN(c3ccc(Cl)cc3)CC1)C2` (centres undefined): the pKi in test [1] was 5.54; in test [4], 7.17; in test [5], 5.26; in test [7], 6.15. Moreover, the Ratio Ki is 43.1 in the test listed under Homo sapiens [2], 83 in the test filed under Homo sapiens [3] and 10.7 in the test filed under Homo sapiens [6].
As for `O=C1Nc2ccccc2C12CCN(CCN1CCN(c3ccc(F)cc3)CC1)C2` (centres undefined), the pKi in test [1] was 4.85; in test [4], 7.68; in test [5], 5.32; in test [7] it was 7.23. For the same molecule, the results for the Ratio Ki in the test filed under Homo sapiens [2], in the test listed under Homo sapiens [3] and in the test filed under Homo sapiens [6] were 674, 226 and 2.8, respectively.
On to `O=C1Nc2ccccc2C12CCN(CCN1CCN(c3ccccc3Cl)CC1)C2` (centres undefined), for which the pKi in test [1] was 5.96; in test [4] it was 6.61; in test [5] it was 5.55; in test [7] it was 6.34. Also, the Ratio Ki in the test filed under Homo sapiens [2] amounted to 4.5; in the test listed under Homo sapiens [3], 11.6; in the test listed under Homo sapiens [6] it was 1.8.

The values above are taken from ChEMBL document CHEMBL4190399, “Spiro[pyrrolidine-3,3'-oxindoles] as 5-HT7 receptor ligands” (Bioorg Med Chem Lett, 2018).
